Results as given in ChEMBL document CHEMBL3352641, “Discovery of pyrrolo[1,2-b]pyridazine-3-carboxamides as Janus kinase (JAK) inhibitors” (Bioorg Med Chem Lett, 2014).

Legend:
Cytochrome P450 3A4 = Cytochrome P450 3A4 (Homo sapiens, UniProt P08684); assay: Inhibition of CYP3A4 (unknown origin); format: ADME
[1] = Tmax in balb/c mouse at 2 mg/kg, po; format: ADME, organism-based; design: dose 2 mg/kg, route oral; settings: in vivo
Cytochrome P450 2C8 = molecular target: T1, Cytochrome P450 2C8 (Homo sapiens, UniProt P10632); assay: Inhibition of CYP2C8 (unknown origin); format: ADME
T1 sequence (P10632 whole entry): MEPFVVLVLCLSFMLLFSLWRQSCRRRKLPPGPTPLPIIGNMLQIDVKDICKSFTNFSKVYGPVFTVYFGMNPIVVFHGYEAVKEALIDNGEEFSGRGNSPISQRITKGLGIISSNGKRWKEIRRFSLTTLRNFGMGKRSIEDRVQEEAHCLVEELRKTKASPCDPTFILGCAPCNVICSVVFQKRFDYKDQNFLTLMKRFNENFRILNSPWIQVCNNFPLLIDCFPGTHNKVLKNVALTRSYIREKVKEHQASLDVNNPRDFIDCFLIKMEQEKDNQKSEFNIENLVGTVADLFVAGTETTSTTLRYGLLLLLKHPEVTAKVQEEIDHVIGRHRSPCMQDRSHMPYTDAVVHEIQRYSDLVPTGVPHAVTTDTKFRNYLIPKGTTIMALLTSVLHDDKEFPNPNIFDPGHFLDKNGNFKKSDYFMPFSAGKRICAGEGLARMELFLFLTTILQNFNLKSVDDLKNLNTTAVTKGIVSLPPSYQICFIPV

[2] = Oral bioavailability in balb/c mouse at 10 mg/kg; format: ADME, organism-based; settings: in vivo
[3] = AUC in balb/c mouse at 50 mg/kg, po; format: ADME, organism-based; design: dose 50 mg/kg, route oral; settings: plasma
[4] = molecular target: Non-receptor tyrosine-protein kinase TYK2 (Homo sapiens, UniProt P29597); assay: Inhibition of TYK2 (unknown origin) by caliper assay
Non-receptor tyrosine-protein kinase TYK2, sequence (P29597 whole entry): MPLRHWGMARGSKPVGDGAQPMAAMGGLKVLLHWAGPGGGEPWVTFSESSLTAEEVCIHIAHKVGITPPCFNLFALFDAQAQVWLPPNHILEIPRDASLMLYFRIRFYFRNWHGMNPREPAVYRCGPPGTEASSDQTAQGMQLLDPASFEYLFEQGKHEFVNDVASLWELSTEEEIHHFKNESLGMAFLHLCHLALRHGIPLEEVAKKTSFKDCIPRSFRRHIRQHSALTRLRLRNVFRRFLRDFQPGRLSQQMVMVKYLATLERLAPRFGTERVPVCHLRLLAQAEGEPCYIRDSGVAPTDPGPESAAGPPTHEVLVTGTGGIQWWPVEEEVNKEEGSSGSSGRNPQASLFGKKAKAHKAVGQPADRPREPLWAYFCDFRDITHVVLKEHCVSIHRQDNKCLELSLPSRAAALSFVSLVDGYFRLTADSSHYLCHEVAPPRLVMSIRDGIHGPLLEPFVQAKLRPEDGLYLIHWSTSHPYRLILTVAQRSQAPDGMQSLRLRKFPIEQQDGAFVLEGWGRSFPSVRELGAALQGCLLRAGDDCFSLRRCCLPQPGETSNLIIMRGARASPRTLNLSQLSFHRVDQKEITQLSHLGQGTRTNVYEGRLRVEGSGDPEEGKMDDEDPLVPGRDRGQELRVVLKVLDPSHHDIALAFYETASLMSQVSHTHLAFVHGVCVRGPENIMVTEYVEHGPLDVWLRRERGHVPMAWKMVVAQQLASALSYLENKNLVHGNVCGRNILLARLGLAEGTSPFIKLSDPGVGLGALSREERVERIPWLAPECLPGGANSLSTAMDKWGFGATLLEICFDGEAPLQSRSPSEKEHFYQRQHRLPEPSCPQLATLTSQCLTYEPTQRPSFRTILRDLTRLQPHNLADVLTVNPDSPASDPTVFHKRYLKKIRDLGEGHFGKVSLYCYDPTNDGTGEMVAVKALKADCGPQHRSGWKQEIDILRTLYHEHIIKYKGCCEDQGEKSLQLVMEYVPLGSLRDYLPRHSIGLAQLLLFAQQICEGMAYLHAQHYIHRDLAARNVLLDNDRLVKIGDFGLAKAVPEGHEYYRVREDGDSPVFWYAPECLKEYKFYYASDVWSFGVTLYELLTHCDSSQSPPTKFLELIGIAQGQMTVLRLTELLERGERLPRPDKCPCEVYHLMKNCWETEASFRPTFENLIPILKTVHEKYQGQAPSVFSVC

[5] = Half life in balb/c mouse at 50 mg/kg, po; format: ADME, organism-based; design: dose 50 mg/kg, route oral; settings: in vivo
[6] = Cmax in balb/c mouse at 50 mg/kg, po; format: ADME, organism-based; design: dose 50 mg/kg, route oral; settings: in vivo
[7] = AUC in balb/c mouse at 10 mg/kg, po; format: ADME, organism-based; design: dose 10 mg/kg, route oral; settings: plasma
[8] = Inhibition of […] (unknown origin); format: ADME, Homo sapiens
Cytochrome P450 2D6 = Cytochrome P450 2D6 (Homo sapiens, UniProt P10635); assay: Inhibition of CYP2D6 (unknown origin); format: ADME
Cytochrome P450 2D6, sequence (P10635 whole entry): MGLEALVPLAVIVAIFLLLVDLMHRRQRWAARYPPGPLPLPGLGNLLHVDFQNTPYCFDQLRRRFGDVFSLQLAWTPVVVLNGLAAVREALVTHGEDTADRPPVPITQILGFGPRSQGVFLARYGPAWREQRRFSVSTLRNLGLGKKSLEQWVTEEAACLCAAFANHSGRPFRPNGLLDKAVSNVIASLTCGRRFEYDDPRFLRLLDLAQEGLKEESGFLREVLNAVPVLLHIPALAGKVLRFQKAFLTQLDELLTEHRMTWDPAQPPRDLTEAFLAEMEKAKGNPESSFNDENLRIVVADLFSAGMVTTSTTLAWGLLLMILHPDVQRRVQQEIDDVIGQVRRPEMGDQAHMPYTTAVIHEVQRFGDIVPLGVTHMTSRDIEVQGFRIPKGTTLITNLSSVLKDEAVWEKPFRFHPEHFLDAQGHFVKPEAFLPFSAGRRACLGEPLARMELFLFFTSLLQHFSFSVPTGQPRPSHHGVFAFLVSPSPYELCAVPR

Cytochrome P450 2C9 = Cytochrome P450 2C9 (Homo sapiens, UniProt P11712); assay: Inhibition of CYP2C9 (unknown origin); format: ADME
Cytochrome P450 2C9, sequence (P11712 whole entry): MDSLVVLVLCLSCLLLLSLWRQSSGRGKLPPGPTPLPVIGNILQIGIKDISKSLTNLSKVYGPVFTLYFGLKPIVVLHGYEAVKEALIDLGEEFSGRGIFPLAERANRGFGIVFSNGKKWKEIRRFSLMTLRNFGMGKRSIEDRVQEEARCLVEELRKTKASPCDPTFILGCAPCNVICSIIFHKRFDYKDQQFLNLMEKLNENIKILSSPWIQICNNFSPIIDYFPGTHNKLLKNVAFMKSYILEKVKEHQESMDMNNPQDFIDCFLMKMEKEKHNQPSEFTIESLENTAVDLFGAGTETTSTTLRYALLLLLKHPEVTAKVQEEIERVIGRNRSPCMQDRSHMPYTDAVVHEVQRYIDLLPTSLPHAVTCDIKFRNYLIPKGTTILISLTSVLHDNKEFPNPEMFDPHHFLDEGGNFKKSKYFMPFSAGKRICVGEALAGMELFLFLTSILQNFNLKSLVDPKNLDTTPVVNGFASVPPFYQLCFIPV

[9] = Permeability by PAMPA method; format: ADME; settings: read-out: permeability
[10] = Oral bioavailability in balb/c mouse at 2 mg/kg; format: ADME, organism-based; settings: in vivo
[11] = Half life human liver microsomes; format: ADME
[12] = molecular target: T2, Tyrosine-protein kinase JAK3 (Homo sapiens, UniProt P52333); assay: Inhibition of JAK3 (unknown origin) by filter assay
T2 sequence (P52333 whole entry): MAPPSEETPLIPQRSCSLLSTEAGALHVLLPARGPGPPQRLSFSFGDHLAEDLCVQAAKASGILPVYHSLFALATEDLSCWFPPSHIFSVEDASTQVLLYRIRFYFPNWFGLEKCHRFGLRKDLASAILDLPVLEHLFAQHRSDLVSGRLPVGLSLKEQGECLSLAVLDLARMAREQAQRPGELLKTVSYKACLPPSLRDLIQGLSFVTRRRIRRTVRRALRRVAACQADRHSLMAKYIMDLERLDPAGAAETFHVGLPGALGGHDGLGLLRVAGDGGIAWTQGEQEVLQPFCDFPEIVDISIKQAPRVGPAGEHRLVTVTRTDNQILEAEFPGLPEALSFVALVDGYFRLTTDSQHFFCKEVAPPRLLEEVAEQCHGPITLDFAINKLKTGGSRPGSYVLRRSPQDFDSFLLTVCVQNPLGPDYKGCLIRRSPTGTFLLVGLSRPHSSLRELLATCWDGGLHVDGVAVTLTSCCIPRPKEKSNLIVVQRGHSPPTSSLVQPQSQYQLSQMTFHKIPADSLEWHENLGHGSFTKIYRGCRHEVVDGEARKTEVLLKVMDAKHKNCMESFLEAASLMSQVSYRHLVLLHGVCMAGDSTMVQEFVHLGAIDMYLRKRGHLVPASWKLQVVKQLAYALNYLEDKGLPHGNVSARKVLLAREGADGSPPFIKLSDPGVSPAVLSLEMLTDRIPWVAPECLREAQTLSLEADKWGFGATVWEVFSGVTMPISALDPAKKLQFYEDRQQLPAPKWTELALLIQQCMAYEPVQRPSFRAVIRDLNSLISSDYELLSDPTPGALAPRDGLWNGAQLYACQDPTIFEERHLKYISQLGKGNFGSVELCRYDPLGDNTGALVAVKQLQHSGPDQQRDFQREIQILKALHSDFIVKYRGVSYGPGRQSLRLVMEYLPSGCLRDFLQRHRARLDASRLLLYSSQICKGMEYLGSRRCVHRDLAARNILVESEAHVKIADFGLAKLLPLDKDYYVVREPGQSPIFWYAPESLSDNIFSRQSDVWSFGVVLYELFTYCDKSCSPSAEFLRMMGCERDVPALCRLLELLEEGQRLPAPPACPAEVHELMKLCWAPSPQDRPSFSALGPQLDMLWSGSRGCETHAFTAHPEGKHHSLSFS

[13] = Cmax in balb/c mouse at 2 mg/kg, po; format: ADME, organism-based; design: dose 2 mg/kg, route oral; settings: in vivo
[14] = Fraction unbound in human serum; format: ADME, cell-free
Cytochrome P450 1A2 = molecular target: T3, Cytochrome P450 1A2 (Homo sapiens, UniProt P05177); assay: Inhibition of CYP1A2 (unknown origin); format: ADME
T3 sequence (P05177 whole entry): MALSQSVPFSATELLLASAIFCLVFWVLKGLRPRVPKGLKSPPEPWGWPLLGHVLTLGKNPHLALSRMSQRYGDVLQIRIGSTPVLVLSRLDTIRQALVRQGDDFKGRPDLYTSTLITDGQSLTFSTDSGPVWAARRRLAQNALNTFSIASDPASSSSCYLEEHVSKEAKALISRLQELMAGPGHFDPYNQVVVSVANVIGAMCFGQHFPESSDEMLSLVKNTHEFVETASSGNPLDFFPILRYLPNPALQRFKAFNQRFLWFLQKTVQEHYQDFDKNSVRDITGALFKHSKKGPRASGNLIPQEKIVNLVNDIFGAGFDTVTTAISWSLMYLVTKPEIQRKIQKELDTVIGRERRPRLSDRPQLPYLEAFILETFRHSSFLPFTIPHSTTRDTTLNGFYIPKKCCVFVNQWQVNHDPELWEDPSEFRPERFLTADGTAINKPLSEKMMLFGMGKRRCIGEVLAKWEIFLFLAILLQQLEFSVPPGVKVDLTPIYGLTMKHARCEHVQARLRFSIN

[15] = molecular target: Tyrosine-protein kinase JAK1 (Homo sapiens, UniProt P23458); assay: Inhibition of JAK1 (unknown origin) bycaliper assay
Tyrosine-protein kinase JAK1, sequence (P23458 whole entry): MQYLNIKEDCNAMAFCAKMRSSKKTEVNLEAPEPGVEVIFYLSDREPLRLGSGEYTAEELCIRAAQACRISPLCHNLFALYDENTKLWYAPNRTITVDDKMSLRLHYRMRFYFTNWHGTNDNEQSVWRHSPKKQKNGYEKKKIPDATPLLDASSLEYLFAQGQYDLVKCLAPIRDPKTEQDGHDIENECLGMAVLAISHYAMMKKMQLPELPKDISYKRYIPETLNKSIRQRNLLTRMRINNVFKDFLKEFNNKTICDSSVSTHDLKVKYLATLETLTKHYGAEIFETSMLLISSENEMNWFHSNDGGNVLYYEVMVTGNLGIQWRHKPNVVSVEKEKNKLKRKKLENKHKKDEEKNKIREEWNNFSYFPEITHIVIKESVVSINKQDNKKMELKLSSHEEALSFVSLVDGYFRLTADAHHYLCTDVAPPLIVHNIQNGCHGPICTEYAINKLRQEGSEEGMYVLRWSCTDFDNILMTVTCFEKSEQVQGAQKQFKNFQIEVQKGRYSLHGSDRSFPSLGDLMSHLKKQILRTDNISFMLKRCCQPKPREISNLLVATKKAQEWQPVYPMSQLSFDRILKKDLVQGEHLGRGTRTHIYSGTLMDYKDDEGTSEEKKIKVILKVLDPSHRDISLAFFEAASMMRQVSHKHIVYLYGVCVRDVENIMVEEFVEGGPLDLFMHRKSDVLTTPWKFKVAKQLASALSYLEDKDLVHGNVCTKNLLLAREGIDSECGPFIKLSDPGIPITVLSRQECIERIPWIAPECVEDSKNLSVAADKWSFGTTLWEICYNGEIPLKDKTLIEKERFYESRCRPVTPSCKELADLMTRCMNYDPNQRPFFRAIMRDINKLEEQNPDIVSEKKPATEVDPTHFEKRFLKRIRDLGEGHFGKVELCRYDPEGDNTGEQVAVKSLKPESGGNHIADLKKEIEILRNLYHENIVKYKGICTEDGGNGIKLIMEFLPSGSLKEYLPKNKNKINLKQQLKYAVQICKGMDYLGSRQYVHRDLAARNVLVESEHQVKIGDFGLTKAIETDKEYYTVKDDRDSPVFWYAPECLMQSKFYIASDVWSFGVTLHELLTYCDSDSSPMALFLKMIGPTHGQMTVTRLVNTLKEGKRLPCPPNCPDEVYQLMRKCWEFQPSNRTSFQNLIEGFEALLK

[16] = Half life in balb/c mouse at 10 mg/kg, po; format: ADME, organism-based; design: dose 10 mg/kg, route oral; settings: in vivo
[17] = Half life in balb/c mouse at 2 mg/kg, iv; format: ADME, organism-based; design: dose 2 mg/kg, route intravenous; settings: in vivo
[18] = Volume of distribution at steady state in balb/c mouse at 2 mg/kg, iv; format: ADME, organism-based; design: dose 2 mg/kg, route intravenous; settings: in vivo, read-out: Vdss
[19] = molecular target: Tyrosine-protein kinase JAK2 (Homo sapiens, UniProt O60674); assay: Inhibition of JAK2 (unknown origin) by caliper assay
Tyrosine-protein kinase JAK2, sequence (O60674 whole entry): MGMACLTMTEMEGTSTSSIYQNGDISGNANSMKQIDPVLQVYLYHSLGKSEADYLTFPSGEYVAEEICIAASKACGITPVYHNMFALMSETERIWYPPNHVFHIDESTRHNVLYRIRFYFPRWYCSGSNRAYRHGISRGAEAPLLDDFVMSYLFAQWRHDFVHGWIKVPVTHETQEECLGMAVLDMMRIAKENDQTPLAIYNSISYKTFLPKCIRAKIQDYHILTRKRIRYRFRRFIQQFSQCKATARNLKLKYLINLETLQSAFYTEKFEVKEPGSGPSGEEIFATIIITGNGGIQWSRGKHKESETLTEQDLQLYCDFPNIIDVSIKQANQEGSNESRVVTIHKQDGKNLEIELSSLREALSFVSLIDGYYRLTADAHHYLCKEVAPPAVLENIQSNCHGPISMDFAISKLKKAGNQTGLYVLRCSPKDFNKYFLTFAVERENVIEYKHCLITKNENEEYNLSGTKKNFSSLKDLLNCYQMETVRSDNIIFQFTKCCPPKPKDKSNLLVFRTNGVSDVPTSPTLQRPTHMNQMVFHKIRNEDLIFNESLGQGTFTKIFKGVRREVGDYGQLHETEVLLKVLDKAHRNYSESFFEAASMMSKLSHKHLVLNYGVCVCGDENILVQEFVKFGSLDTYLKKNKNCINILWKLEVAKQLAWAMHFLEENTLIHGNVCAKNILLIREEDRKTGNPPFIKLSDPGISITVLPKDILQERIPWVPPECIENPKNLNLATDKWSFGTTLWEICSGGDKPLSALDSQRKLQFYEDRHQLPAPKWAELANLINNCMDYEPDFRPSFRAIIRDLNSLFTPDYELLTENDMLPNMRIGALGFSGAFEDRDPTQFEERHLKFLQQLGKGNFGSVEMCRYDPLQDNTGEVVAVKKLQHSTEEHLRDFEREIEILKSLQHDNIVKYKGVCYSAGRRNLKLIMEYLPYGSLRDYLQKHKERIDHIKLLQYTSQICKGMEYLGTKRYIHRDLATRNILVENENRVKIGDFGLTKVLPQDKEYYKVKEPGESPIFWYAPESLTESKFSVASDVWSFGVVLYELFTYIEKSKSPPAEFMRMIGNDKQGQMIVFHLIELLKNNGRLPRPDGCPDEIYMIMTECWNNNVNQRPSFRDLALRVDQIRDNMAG

Blood = assay: Inhibition of IL2-induced IFN-gamma production in human whole blood incubated for 18 hrs by ELISA method; format: functional, tissue-based
[20] = Half life in balb/c mouse at 2 mg/kg, po; format: ADME, organism-based; design: dose 2 mg/kg, route oral; settings: in vivo
[21] = Half life mouse liver microsomes; format: ADME
[22] = Oral bioavailability in balb/c mouse at 50 mg/kg; format: ADME, organism-based; settings: in vivo
[23] = Tmax in balb/c mouse at 10 mg/kg, po; format: ADME, organism-based; design: dose 10 mg/kg, route oral; settings: in vivo
[24] = Cmax in balb/c mouse at 10 mg/kg, po; format: ADME, organism-based; design: dose 10 mg/kg, route oral; settings: in vivo
[25] = Clearance in balb/c mouse at 2 mg/kg, iv; format: ADME, organism-based; design: dose 2 mg/kg, route intravenous; settings: in vivo
[26] = Permeability in human Caco2 cells; format: ADME, cell-based; settings: Caco-2, read-out: permeability
[27] = Tmax in balb/c mouse at 50 mg/kg, po; format: ADME, organism-based; design: dose 50 mg/kg, route oral; settings: in vivo
[28] = AUC in balb/c mouse at 2 mg/kg, po; format: ADME, organism-based; design: dose 2 mg/kg, route oral; settings: plasma
[29] = AUC in balb/c mouse at 2 mg/kg, iv; format: ADME, organism-based; design: dose 2 mg/kg, route intravenous; settings: plasma

Cytochrome P450 3A4, sequence (P08684 whole entry): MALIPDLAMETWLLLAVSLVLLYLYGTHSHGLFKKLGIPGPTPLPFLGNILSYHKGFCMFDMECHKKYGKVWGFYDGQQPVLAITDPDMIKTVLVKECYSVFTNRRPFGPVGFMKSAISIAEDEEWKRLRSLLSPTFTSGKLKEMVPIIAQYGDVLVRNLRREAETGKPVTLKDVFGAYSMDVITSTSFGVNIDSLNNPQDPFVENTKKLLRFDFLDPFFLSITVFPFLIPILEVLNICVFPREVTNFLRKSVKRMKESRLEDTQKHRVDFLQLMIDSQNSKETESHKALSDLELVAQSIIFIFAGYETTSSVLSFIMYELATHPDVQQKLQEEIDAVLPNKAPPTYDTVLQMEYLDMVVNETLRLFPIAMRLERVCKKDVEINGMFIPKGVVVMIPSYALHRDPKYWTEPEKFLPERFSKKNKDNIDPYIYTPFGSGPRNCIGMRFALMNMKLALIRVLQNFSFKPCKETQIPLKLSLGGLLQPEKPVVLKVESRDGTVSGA

C[C@]1(F)CCC[C@H]1Nc1c(C(N)=O)cnn2cccc12
IC50 (Cytochrome P450 3A4): > 20000 nM
Tmax [1]: 30 min
IC50 (Cytochrome P450 2C8): > 20000 nM
bioavailability [2]: 59%
AUC [3]: 21 µM·h
IC50 [4]: 2 nM
half-life [5]: 120 min
Cmax [6]: 8200 nM
AUC [7]: 5.7 µM·h
IC50 [8]: > 20000 nM
IC50 (Cytochrome P450 2D6): > 20000 nM
IC50 (Cytochrome P450 2C9): > 20000 nM
Papp [9]: 76.6 ×10⁻⁶ cm/s
bioavailability [10]: 45%
half-life [11]: 20 min
IC50 [12]: 1 nM
Cmax [13]: 480 nM
fraction unbound [14]: 0.11
IC50 (Cytochrome P450 1A2): > 20000 nM
IC50 [15]: 9 nM
half-life [16]: 96 min
half-life [17]: 72 min
Vd [18]: 4.8 L/kg
IC50 [19]: 18 nM
IC50 (Blood): 260 nM
half-life [20]: 84 min
half-life [21]: 34 min
bioavailability [22]: 46%
Tmax [23]: 30 min
Cmax [24]: 2600 nM
clearance [25]: 60 mL/min/kg
Papp [26]: 25.6 ×10⁻⁶ cm/s
Tmax [27]: 30 min
AUC [28]: 0.87 µM·h
AUC [29]: 2 µM·h
